In patent US11884647B2, “Compounds and methods for targeting pathogenic blood vessels” (THE REGENTS OF THE UNIVERSITY OF CALIFORNIA, priority 2019, dated 2024):

How the values were obtained:
[1] = system: tumor endothelial cells (CT26.CL25 colon cancer tumor); assay: Colon CT26 ex vivo model of tumor angiogenesis; type: cell-based; details: Mus musculus, CT26, 48 h, read-out: Cell death
Method: This example describes a procedure to prepare a primary tumor angiogenesis model for assessing the efficacy of anti-cancer candidate agents.
1. The day before the experiment, spray all necessary tools with 70% ethanol and sterilize them under UV light overnight, including blade, dissecting and micro-dissecting scissors and […]. Place 24-well dishes at 4° C. to pre-chill plates and thaw Matrigel 24 hours before tumor dissection.
2. Spray 70% ethanol on working bench. Prepare two sterile petri dishes with 10 mL sterile PBS. Steps 3 and 4 are for mouse tumor models. For fresh human tumor, directly go to step 5.
3. Euthanize the tumor-bearing mice. Spray 70% ethanol on the mouse and remove the tumor using sterilized dissecting tools (avoid the fur). Rinse the tumor in petri dish with sterile PBS to remove ethanol and fur. Transfer the tumor to a new petri dish with PBS for dissection. Place the dish on ice.
4. Using pre-chilled sterile pipet tips to seed regular Matrigel in 24 well plates on ice. Matrigel (30 μL) is dropped in the middle of each well without touching the edge of the well (avoid introducing bubbles if possible).
5. Cut the tumor in halves using the sterile blade. Identify and isolate healthy tumor tissue that is not necrotic and is within the tumor capsule. Cut the healthy tumor tissue into small pieces. For instance, a suitable size for the tumor tissue is 0.5 mm (H)×0.5 mm (L)×0.3 mm (D) with a total volume of 0.075 mm^3.
6. Gently transfer and embed each tumor piece in the Matrigel drop in the 24-well plate. Place the embedded piece in the bottom and middle of each Matrigel drop. Keep the plate on ice all the time.
7. After seeding the tumor pieces, plates are incubated in a 37° C. cell culture incubator without medium for 10 minutes in order for the Matrigel to solidify.
8. Endothelial Growth Medium (0.5 mL) is added to each well and incubated at 37° C. with 5% CO2. Wait until the new endothelial cells have grown out of the tumor or are larger than 3 mm in diameter until treatment. This usually takes 4 days for the LL2 Lewis lung cancer model and 7 days for the CT26 colon cancer model. For human tumor models, the growth time is typically 2-3 weeks, depending on the tumor type. Media is changed every 4 days during prolonged culture. Typically, when the tumor tissue grows to 2 mm in diameter, it is good for drug testing. A size of about 3 mm in diameter can make visualization easier.
9. When the assay is ready to be analyzed for cell death (e.g., 48 hours after drug addition), prepare the dye mixture by mixing 6 μL of green dye to stain live cells (5 mg/mL Fluorescein diacetate or FDA in DMSO) with 30 μL of red dye (2.5 mg/mL Propidium iodide or PI in PBS) to stain dead cells in an Eppendorf tube. The FDA dye needs to be stored frozen in a −20° C. freezer because it has a labile ester bond.
10. Add 1 μL of the dye mixture to each well of the 24-well dish. It is usually performed one 24-well dish at a time given the amount of time needed to take pictures (the green dye is not as stable in the cells in the long term).
11. Gently rock the dish a few times to mix the dye with the media in the wells and incubate the dish at 37° C. for 10 min (too long incubation can make the green signal too intense).
12. Wash each well with 0.5 mL of sterile PBS and then add 0.5 mL of phenol red free SFM to each well. Alternatively 0.5 mL of regular Endothelial Cell Growth Media can be added to each well if this well needs to be continuously maintained after the experiment.
13. Look through all wells on an inverted microscope using the 2× objective lens to observe morphological changes.
14. Taking pictures in the red and green channels would allow not only the recording of the result but also more accurate quantitation of the result. To take pictures for all the wells, first pick a well that has robust red and green signals. […]

[2] = system: tumor endothelial cells (LL/2 lung cancer tumor); assay: Lung LL2 ex vivo model of tumor angiogenesis; type: cell-based, mouse; details: for Cell death: Lung LL2 ex vivo, Conc. 40 μm, drug treatment two days; for cytotoxicity at 40 µM / cytotoxicity at 20 µM: Mus musculus, Endothelial cell, 48 h, read-out: Cell death
Procedure, shortened: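 Mouse LL2 tumor fragments (~0.5×0.5×0.3 mm) embedded in Matrigel and grown in endothelial growth medium at 37° C until endothelial outgrowth (about 4 days) before drug treatment. About 48 h after drug addition, stained 10 min with fluorescein diacetate/propidium iodide; live (green) and dead (red) cells imaged at 2× with fixed channel settings.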

Compound | cytotoxicity at 40 µM [1] | cytotoxicity at 40 µM [2] | cytotoxicity at 20 µM [2] | also measured
CCCCOc1ccc(S(=O)(=O)c2cnc3ccc(C(=O)OCC)cc3c2N2CCC(N3CCC(c4ccccc4)CC3)CC2)cc1 [compound 215, ethyl 3-((4-butoxyphenyl)sulfonyl)-4-(4-phenyl-[1,4′-bipiperidin]-1′-yl)quinoline-6-carboxylate] | 20% | – | – | Cell death [2]: 30%
CCCCN(CCCC)c1c(S(=O)(=O)c2ccc(OC)c(OC)c2)cnc2ccc(OC(F)(F)F)cc12 [compound 74, N,N-dibutyl-3-((3,4-dimethoxyphenyl)sulfonyl)-6-(trifluoromethoxy)quinolin-4-amine] | 100% | 60% | – | –
CCc1ccc(S(=O)(=O)c2cnc3ccc(C(=O)O)cc3c2N2CCC(N3CCCCC3)CC2)cc1 [compound 67, 4-([1,4′-bipiperidin]-1′-yl)-3-((4-ethylphenyl)sulfonyl)quinoline-6-carboxylic acid] | 0% | 10% | – | –
O=[N+]([O-])c1ccc(S(=O)(=O)c2cnc3ccc(OC(F)(F)F)cc3c2N2CCC(O)CC2)cc1 [compound 61, 1-(3-((4-nitrophenyl)sulfonyl)-6-(trifluoromethoxy)quinolin-4-yl)piperidin-4-ol] | 20% | 50% | – | –
CCc1ccc(S(=O)(=O)c2cnc3ccc(OC(F)(F)F)cc3c2-n2cnc(C)c2)cc1 [compound 117, 3-((4-ethylphenyl)sulfonyl)-4-(4-methyl-1H-imidazol-1-yl)-6-(trifluoromethoxy)quinoline] | – | – | 100% | cytotoxicity at 20 µM [1]: 100%
CCc1ccc(S(=O)(=O)c2cnc3ccc(OC(F)(F)F)cc3c2-n2ccnc2)cc1 [compound 118, 3-((4-ethylphenyl)sulfonyl)-4-(1H-imidazol-1-yl)-6-(trifluoromethoxy)quinoline] | – | – | 100% | cytotoxicity at 20 µM [1]: 100%
COc1ccc(S(=O)(=O)c2cnc3ccc(OC(F)(F)F)cc3c2-n2cncn2)cc1 [compound 86, 3-((4-methoxyphenyl)sulfonyl)-4-(1H-1,2,4-triazol-1-yl)-6-(trifluoromethoxy)quinoline] | – | – | 100% | cytotoxicity at 10 µM [1]: 100%
CN1CCN(Nc2c(S(=O)(=O)c3ccc(OC(F)(F)F)cc3)cnc3ccc(OC(F)(F)F)cc23)CC1 [compound 90, N-(4-methylpiperazin-1-yl)-6-(trifluoromethoxy)-3-((4-(trifluoromethoxy)phenyl)sulfonyl)quinolin-4-amine] | 0% | – | – | Cell death [2]: 10%
CCCCOc1ccc(S(=O)(=O)c2cnc3ccc(OC(F)(F)F)cc3c2-n2cncn2)cc1 [compound 93, 3-((4-butoxyphenyl)sulfonyl)-4-(1H-1,2,4-triazol-1-yl)-6-(trifluoromethoxy)quinoline] | – | – | 100% | cytotoxicity at 10 µM [1]: 100%
CCCCCCCOc1ccc(S(=O)(=O)c2cnc3ccc([S+](C)[O-])cc3c2N2CCC(N3CCCC(O)C3)CC2)cc1 (stereo not shown) [compound 254, 1′-(3-((4-(heptyloxy)phenyl)sulfonyl)-6-(methylsulfinyl)quinolin-4-yl)-[1,4′-bipiperidin]-3-ol] | – | – | 100% | cytotoxicity at 10 µM [1]: 40%
O=[N+]([O-])c1ccc(S(=O)(=O)c2cnc3ccc(OC(F)(F)F)cc3c2N2CCC(N3CCCCC3)CC2)cc1 [compound 59, 4-([1,4′-bipiperidin]-1′-yl)-3-((4-nitrophenyl)sulfonyl)-6-(trifluoromethoxy)quinoline] | 50% | 40% | – | –
CCCCOc1ccc(S(=O)(=O)c2cnc3ccc(C(=O)OCC)cc3c2N2CCC(N3CCN(CCO)CC3)CC2)cc1 [compound 214, ethyl 3-((4-butoxyphenyl)sulfonyl)-4-(4-(4-(2-hydroxyethyl)piperazin-1-yl)piperidin-1-yl)quinoline-6-carboxylate] | 100% | 100% | – | –
COc1ccc(S(=O)(=O)c2cnc3ccc(SC)cc3c2N2CCCN(C)CC2)cc1OC [compound 154, 3-((3,4-dimethoxyphenyl)sulfonyl)-4-(4-methyl-1,4-diazepan-1-yl)-6-(methylthio)quinoline] | 30% | 30% | – | –
COc1ccc(S(=O)(=O)c2cnc3ccc([N+](=O)[O-])cc3c2-n2cncn2)cc1 [compound 97, 3-((4-methoxyphenyl)sulfonyl)-6-nitro-4-(1H-1,2,4-triazol-1-yl)quinoline] | – | – | 50% | cytotoxicity at 10 µM [1]: 100%
CCN(CC)C(=O)c1ccc2ncc(S(=O)(=O)c3ccc(OC)cc3)c(N3CCCN(C)CC3)c2c1 [compound 165, N,N-diethyl-3-((4-methoxyphenyl)sulfonyl)-4-(4-methyl-1,4-diazepan-1-yl)quinoline-6-carboxamide] | 10% | 10% | – | –
CCCCOc1ccc(S(=O)(=O)c2cnc3ccc([S+](C)[O-])cc3c2N2CCC(N3CCCC(O)C3)CC2)cc1 (stereo not shown) [compound 208, 1′-(3-((4-butoxyphenyl)sulfonyl)-6-(methylsulfinyl)quinolin-4-yl)-[1,4′-bipiperidin]-3-ol] | 20% | 50% | – | –
COc1ccc(S(=O)(=O)c2cnc3ccc(OC(F)(F)F)cc3c2N2CCC(N3CCCCC3)CC2)cc1 [compound 43, 4-([1,4′-bipiperidin]-1′-yl)-3-((4-methoxyphenyl)sulfonyl)-6-(trifluoromethoxy)quinoline] | 90% | 100% | – | –
COc1ccc(S(=O)(=O)c2cnc3ccc(OC(F)(F)F)cc3c2NN2CCN(C)CC2)cc1 [compound 85, 3-((4-methoxyphenyl)sulfonyl)-N-(4-methylpiperazin-1-yl)-6-(trifluoromethoxy)quinolin-4-amine] | 50% | 80% | – | –
CCN(CC)CCNC(=O)c1ccc2ncc(S(=O)(=O)c3ccc(OC)cc3)c(N3CCCN(C)CC3)c2c1 [compound 166, N-(2-(diethylamino)ethyl)-3-((4-methoxyphenyl)sulfonyl)-4-(4-methyl-1,4-diazepan-1-yl)quinoline-6-carboxamide] | 60% | 10% | – | –
CCc1ccc(S(=O)(=O)c2cnc3ccc(OC(F)(F)F)cc3c2N2CCCN(CC(=O)O)CC2)cc1 [compound 42, 2-(4-(3-((4-ethylphenyl)sulfonyl)-6-(trifluoromethoxy)quinolin-4-yl)-1,4-diazepan-1-yl)acetic acid] | 0% | 30% | – | –
CCCCCCCOc1ccc(S(=O)(=O)c2cnc3ccc([S+](C)[O-])cc3c2N2CCC(N3CCC(N4CCCCC4)CC3)CC2)cc1 (stereo not shown) [compound 258, 4-([1,4′:1′,4″-terpiperidin]-1″-yl)-3-((4-(heptyloxy)phenyl)sulfonyl)-6-(methylsulfinyl)quinoline] | – | – | 100% | cytotoxicity at 10 µM [1]: 100%
CCCCOc1ccc(S(=O)(=O)c2cnc3ccc(S(C)(=O)=O)cc3c2N2CCCN(C)CC2)cc1 [compound 164, 3-((4-butoxyphenyl)sulfonyl)-4-(4-methyl-1,4-diazepan-1-yl)-6-(methylsulfonyl)quinoline] | 100% | 95% | – | –
COc1ccc(S(=O)(=O)c2cnc3ccc(OC(F)(F)F)cc3c2N2CCC(O)CC2)cc1 [compound 44, 1-(3-((4-methoxyphenyl)sulfonyl)-6-(trifluoromethoxy)quinolin-4-yl)piperidin-4-ol] | 0% | 50% | – | –
